Test results taken from the NIST ThermoML archive (doi:10.1021/je5009679).
Numbers after ± are expanded uncertainties.

Details: Liquid; for viscosity: Concentric cylinders viscometry

## CCCC[n+]1ccn(C)c1.O=S(=O)([N-]S(=O)(=O)C(F)(F)F)C(F)(F)F
293.15 K, 101.33 kPa
  viscosity: 63.41 ± 3 mPa·s
293.15 K, 101.33 kPa, Vibrating tube method
  mass density: 1440.9 ± 1.3 kg/m3
303.15 K, 101.33 kPa
  viscosity: 41.26 ± 1.9 mPa·s
303.15 K, 101.33 kPa, Vibrating tube method
  mass density: 1431.6 ± 1.3 kg/m3
311.8 K, 10000 kPa, Bellows volumetry
  mass density: 1430.7 ± 1.8 kg/m3
311.8 K, 20000 kPa, Bellows volumetry
  mass density: 1437.5 ± 1.8 kg/m3
311.8 K, 30000 kPa, Bellows volumetry
  mass density: 1444.6 ± 1.8 kg/m3
311.8 K, 40000 kPa, Bellows volumetry
  mass density: 1451.2 ± 1.8 kg/m3
311.8 K, 50000 kPa, Bellows volumetry
  mass density: 1457.5 ± 1.8 kg/m3
311.8 K, 60000 kPa, Bellows volumetry
  mass density: 1463.6 ± 1.8 kg/m3
311.8 K, 70000 kPa, Bellows volumetry
  mass density: 1469.5 ± 1.8 kg/m3
311.8 K, 80000 kPa, Bellows volumetry
  mass density: 1475.2 ± 1.8 kg/m3
311.8 K, 90000 kPa, Bellows volumetry
  mass density: 1480.5 ± 1.8 kg/m3
311.8 K, 100000 kPa, Bellows volumetry
  mass density: 1485.7 ± 1.8 kg/m3
311.8 K, 110000 kPa, Bellows volumetry
  mass density: 1490.9 ± 1.8 kg/m3
311.8 K, 120000 kPa, Bellows volumetry
  mass density: 1496 ± 1.8 kg/m3
311.8 K, 130000 kPa, Bellows volumetry
  mass density: 1500.9 ± 1.8 kg/m3
311.8 K, 140000 kPa, Bellows volumetry
  mass density: 1505.6 ± 1.8 kg/m3
311.8 K, 150000 kPa, Bellows volumetry
  mass density: 1510.2 ± 1.8 kg/m3
311.8 K, 160000 kPa, Bellows volumetry
  mass density: 1514.8 ± 1.8 kg/m3
311.8 K, 170000 kPa, Bellows volumetry
  mass density: 1519.3 ± 1.8 kg/m3
311.8 K, 180000 kPa, Bellows volumetry
  mass density: 1523.5 ± 1.8 kg/m3
311.8 K, 190000 kPa, Bellows volumetry
  mass density: 1527.7 ± 1.8 kg/m3
311.8 K, 200000 kPa, Bellows volumetry
  mass density: 1531.8 ± 1.8 kg/m3
313.15 K, 101.33 kPa
  viscosity: 28.46 ± 1.3 mPa·s
313.15 K, 101.33 kPa, Vibrating tube method
  mass density: 1422.1 ± 1.3 kg/m3
323.15 K, 101.33 kPa
  viscosity: 20.58 ± 0.96 mPa·s
323.15 K, 101.33 kPa, Vibrating tube method
  mass density: 1412.6 ± 1.3 kg/m3
331.9 K, 10000 kPa, Bellows volumetry
  mass density: 1412.5 ± 1.8 kg/m3
331.9 K, 20000 kPa, Bellows volumetry
  mass density: 1420.1 ± 1.8 kg/m3
331.9 K, 30000 kPa, Bellows volumetry
  mass density: 1427.4 ± 1.8 kg/m3
331.9 K, 40000 kPa, Bellows volumetry
  mass density: 1434.5 ± 1.8 kg/m3
331.9 K, 50000 kPa, Bellows volumetry
  mass density: 1441.1 ± 1.8 kg/m3
331.9 K, 60000 kPa, Bellows volumetry
  mass density: 1447.6 ± 1.8 kg/m3
331.9 K, 70000 kPa, Bellows volumetry
  mass density: 1453.6 ± 1.8 kg/m3
331.9 K, 80000 kPa, Bellows volumetry
  mass density: 1459.5 ± 1.8 kg/m3
331.9 K, 90000 kPa, Bellows volumetry
  mass density: 1464.9 ± 1.8 kg/m3
331.9 K, 100000 kPa, Bellows volumetry
  mass density: 1470.5 ± 1.8 kg/m3
331.9 K, 110000 kPa, Bellows volumetry
  mass density: 1476 ± 1.8 kg/m3
331.9 K, 120000 kPa, Bellows volumetry
  mass density: 1481.1 ± 1.8 kg/m3
331.9 K, 130000 kPa, Bellows volumetry
  mass density: 1486.2 ± 1.8 kg/m3
331.9 K, 140000 kPa, Bellows volumetry
  mass density: 1491.2 ± 1.8 kg/m3
331.9 K, 150000 kPa, Bellows volumetry
  mass density: 1495.9 ± 1.8 kg/m3
331.9 K, 160000 kPa, Bellows volumetry
  mass density: 1500.5 ± 1.8 kg/m3
331.9 K, 170000 kPa, Bellows volumetry
  mass density: 1505.2 ± 1.8 kg/m3
331.9 K, 180000 kPa, Bellows volumetry
  mass density: 1509.6 ± 1.8 kg/m3
331.9 K, 190000 kPa, Bellows volumetry
  mass density: 1513.9 ± 1.8 kg/m3
331.9 K, 200000 kPa, Bellows volumetry
  mass density: 1518.3 ± 1.8 kg/m3
333.15 K, 101.33 kPa
  viscosity: 15.47 ± 0.72 mPa·s
333.15 K, 101.33 kPa, Vibrating tube method
  mass density: 1403.4 ± 1.3 kg/m3
343.15 K, 101.33 kPa
  viscosity: 12 ± 0.56 mPa·s
343.15 K, 101.33 kPa, Vibrating tube method
  mass density: 1394 ± 1.3 kg/m3
352 K, 10000 kPa, Bellows volumetry
  mass density: 1394 ± 1.8 kg/m3
352 K, 20000 kPa, Bellows volumetry
  mass density: 1402.4 ± 1.8 kg/m3
352 K, 30000 kPa, Bellows volumetry
  mass density: 1410 ± 1.8 kg/m3
352 K, 40000 kPa, Bellows volumetry
  mass density: 1417.4 ± 1.8 kg/m3
352 K, 50000 kPa, Bellows volumetry
  mass density: 1424.3 ± 1.8 kg/m3
352 K, 60000 kPa, Bellows volumetry
  mass density: 1431.2 ± 1.8 kg/m3
352 K, 70000 kPa, Bellows volumetry
  mass density: 1437.5 ± 1.8 kg/m3
352 K, 80000 kPa, Bellows volumetry
  mass density: 1443.8 ± 1.8 kg/m3
352 K, 90000 kPa, Bellows volumetry
  mass density: 1449.5 ± 1.8 kg/m3
352 K, 100000 kPa, Bellows volumetry
  mass density: 1455.3 ± 1.8 kg/m3
352 K, 110000 kPa, Bellows volumetry
  mass density: 1460.8 ± 1.8 kg/m3
352 K, 120000 kPa, Bellows volumetry
  mass density: 1466.3 ± 1.8 kg/m3
352 K, 130000 kPa, Bellows volumetry
  mass density: 1471.5 ± 1.8 kg/m3
352 K, 140000 kPa, Bellows volumetry
  mass density: 1476.5 ± 1.8 kg/m3
352 K, 150000 kPa, Bellows volumetry
  mass density: 1481.4 ± 1.8 kg/m3
352 K, 160000 kPa, Bellows volumetry
  mass density: 1486.3 ± 1.8 kg/m3
352 K, 170000 kPa, Bellows volumetry
  mass density: 1491 ± 1.8 kg/m3
352 K, 180000 kPa, Bellows volumetry
  mass density: 1495.8 ± 1.8 kg/m3
352 K, 190000 kPa, Bellows volumetry
  mass density: 1500.2 ± 1.8 kg/m3
352 K, 200000 kPa, Bellows volumetry
  mass density: 1504.7 ± 1.8 kg/m3
353.15 K, 101.33 kPa
  viscosity: 9.562 ± 0.45 mPa·s
353.15 K, 101.33 kPa, Vibrating tube method
  mass density: 1384.8 ± 1.3 kg/m3
363.15 K, 101.33 kPa
  viscosity: 7.788 ± 0.36 mPa·s
363.15 K, 101.33 kPa, Vibrating tube method
  mass density: 1375.6 ± 1.3 kg/m3
372.2 K, 10000 kPa, Bellows volumetry
  mass density: 1376.1 ± 1.8 kg/m3
372.2 K, 20000 kPa, Bellows volumetry
  mass density: 1384.9 ± 1.8 kg/m3
372.2 K, 30000 kPa, Bellows volumetry
  mass density: 1393.3 ± 1.8 kg/m3
372.2 K, 40000 kPa, Bellows volumetry
  mass density: 1401.1 ± 1.8 kg/m3
372.2 K, 50000 kPa, Bellows volumetry
  mass density: 1408.4 ± 1.8 kg/m3
372.2 K, 60000 kPa, Bellows volumetry
  mass density: 1415.5 ± 1.8 kg/m3
372.2 K, 70000 kPa, Bellows volumetry
  mass density: 1422.1 ± 1.8 kg/m3
372.2 K, 80000 kPa, Bellows volumetry
  mass density: 1428.4 ± 1.8 kg/m3
372.2 K, 90000 kPa, Bellows volumetry
  mass density: 1434.4 ± 1.8 kg/m3
372.2 K, 100000 kPa, Bellows volumetry
  mass density: 1440.3 ± 1.8 kg/m3
372.2 K, 110000 kPa, Bellows volumetry
  mass density: 1446.2 ± 1.8 kg/m3
372.2 K, 120000 kPa, Bellows volumetry
  mass density: 1452 ± 1.8 kg/m3
372.2 K, 130000 kPa, Bellows volumetry
  mass density: 1457.4 ± 1.8 kg/m3
372.2 K, 140000 kPa, Bellows volumetry
  mass density: 1462.6 ± 1.8 kg/m3
372.2 K, 150000 kPa, Bellows volumetry
  mass density: 1467.8 ± 1.8 kg/m3
372.2 K, 160000 kPa, Bellows volumetry
  mass density: 1472.5 ± 1.8 kg/m3
372.2 K, 170000 kPa, Bellows volumetry
  mass density: 1477.5 ± 1.8 kg/m3
372.2 K, 180000 kPa, Bellows volumetry
  mass density: 1482.1 ± 1.8 kg/m3
372.2 K, 190000 kPa, Bellows volumetry
  mass density: 1487 ± 1.8 kg/m3
372.2 K, 200000 kPa, Bellows volumetry
  mass density: 1491.4 ± 1.8 kg/m3
373.15 K, 101.33 kPa
  viscosity: 6.469 ± 0.3 mPa·s
373.15 K, 101.33 kPa, Vibrating tube method
  mass density: 1366.7 ± 1.3 kg/m3
392.4 K, 10000 kPa, Bellows volumetry
  mass density: 1358.5 ± 1.8 kg/m3
392.4 K, 20000 kPa, Bellows volumetry
  mass density: 1367.8 ± 1.8 kg/m3
392.4 K, 30000 kPa, Bellows volumetry
  mass density: 1376.7 ± 1.8 kg/m3
392.4 K, 40000 kPa, Bellows volumetry
  mass density: 1385 ± 1.8 kg/m3
392.4 K, 50000 kPa, Bellows volumetry
  mass density: 1392.8 ± 1.8 kg/m3
392.4 K, 60000 kPa, Bellows volumetry
  mass density: 1400.2 ± 1.7 kg/m3
392.4 K, 70000 kPa, Bellows volumetry
  mass density: 1407.2 ± 1.7 kg/m3
392.4 K, 80000 kPa, Bellows volumetry
  mass density: 1414 ± 1.7 kg/m3
392.4 K, 90000 kPa, Bellows volumetry
  mass density: 1420.7 ± 1.8 kg/m3
392.4 K, 100000 kPa, Bellows volumetry
  mass density: 1426.6 ± 1.8 kg/m3
392.4 K, 110000 kPa, Bellows volumetry
  mass density: 1432.6 ± 1.8 kg/m3
392.4 K, 120000 kPa, Bellows volumetry
  mass density: 1438.2 ± 1.8 kg/m3
392.4 K, 130000 kPa, Bellows volumetry
  mass density: 1443.8 ± 1.8 kg/m3
392.4 K, 140000 kPa, Bellows volumetry
  mass density: 1449.2 ± 1.8 kg/m3
392.4 K, 150000 kPa, Bellows volumetry
  mass density: 1454.4 ± 1.8 kg/m3
392.4 K, 160000 kPa, Bellows volumetry
  mass density: 1459.3 ± 1.8 kg/m3
392.4 K, 170000 kPa, Bellows volumetry
  mass density: 1464.5 ± 1.8 kg/m3
392.4 K, 180000 kPa, Bellows volumetry
  mass density: 1469.2 ± 1.8 kg/m3
392.4 K, 190000 kPa, Bellows volumetry
  mass density: 1474.1 ± 1.8 kg/m3
392.4 K, 200000 kPa, Bellows volumetry
  mass density: 1478.8 ± 1.8 kg/m3
412.1 K, 10000 kPa, Bellows volumetry
  mass density: 1341.1 ± 1.8 kg/m3
412.1 K, 20000 kPa, Bellows volumetry
  mass density: 1351 ± 1.8 kg/m3
412.1 K, 30000 kPa, Bellows volumetry
  mass density: 1360.4 ± 1.8 kg/m3
412.1 K, 40000 kPa, Bellows volumetry
  mass density: 1369.2 ± 1.8 kg/m3
412.1 K, 50000 kPa, Bellows volumetry
  mass density: 1377.5 ± 1.7 kg/m3
412.1 K, 60000 kPa, Bellows volumetry
  mass density: 1385.1 ± 1.7 kg/m3
412.1 K, 70000 kPa, Bellows volumetry
  mass density: 1392.6 ± 1.7 kg/m3
412.1 K, 80000 kPa, Bellows volumetry
  mass density: 1399.6 ± 1.7 kg/m3
412.1 K, 90000 kPa, Bellows volumetry
  mass density: 1406.1 ± 1.8 kg/m3
412.1 K, 100000 kPa, Bellows volumetry
  mass density: 1412.5 ± 1.8 kg/m3
412.1 K, 110000 kPa, Bellows volumetry
  mass density: 1418.8 ± 1.8 kg/m3
412.1 K, 120000 kPa, Bellows volumetry
  mass density: 1424.8 ± 1.8 kg/m3
412.1 K, 130000 kPa, Bellows volumetry
  mass density: 1430.5 ± 1.8 kg/m3
412.1 K, 140000 kPa, Bellows volumetry
  mass density: 1436.2 ± 1.8 kg/m3
412.1 K, 150000 kPa, Bellows volumetry
  mass density: 1441.4 ± 1.8 kg/m3
412.1 K, 160000 kPa, Bellows volumetry
  mass density: 1446.8 ± 1.8 kg/m3
412.1 K, 170000 kPa, Bellows volumetry
  mass density: 1451.9 ± 1.8 kg/m3
412.1 K, 180000 kPa, Bellows volumetry
  mass density: 1456.9 ± 1.8 kg/m3
412.1 K, 190000 kPa, Bellows volumetry
  mass density: 1461.6 ± 1.8 kg/m3
412.1 K, 200000 kPa, Bellows volumetry
  mass density: 1466.6 ± 1.8 kg/m3
